Laboratory results taken from patent publication US10870876B2, “Method for detecting a presence or absence of at least one first zone of inhibition” (BIOMÉRIEUX, priority 2015, dated 2020).
Converted amounts (≈) assume the structure as drawn.

Experiments:
Type in all cases: cell-based
[1] = system: Escherichia coli ATCC 35218; assay: Etest strip MIC, conventional method by flooding of the medium; parameters: key: R = resistant
Procedure: (§1) Another method for detecting sensitivity to antibiotics uses an antibiotic gradient deposited on an agar medium. For this purpose, paper or plastic strips are impregnated with a concentration gradient of antibiotic. The strips soaked in this way are graduated so as to indicate the antibiotic concentration values present along the strip. One or more strips may be placed on a Mueller-Hinton agar, inoculated beforehand in the same way as the above method. After incubation, an ovoid area of inhibition of microbial growth around each strip appears if the microorganism present in the sample is sensitive to the antibiotic contained in the strip. It is thus possible to deduce a minimum inhibitory concentration (MIC) for microbial growth. The minimum concentration of the antimicrobial agent which makes it possible to inhibit the growth of the microorganism which is generally retained is thus the value of the concentration which can be read on the graduation directly below the point of contact between the zone of inhibition and the long edge of the strip. In other words, the MIC is the concentration visible at the limit of the zone of inhibition, at the boundary between the zone of growth of the microorganisms and the zone of non-growth. More particularly, the MIC can be read by noting the point at which the ovoid area of the zone of inhibition intersects the strip, and by noting the corresponding graduation.
(§2) According to a first experiment of this example, an inoculum of a strain of Escherichia coli ATCC 35218 (American Type Culture Collection) having a concentration of 0.5 McFarland is thus deposited in droplets along four Etest® strips (bioMérieux), each deposited on a Mueller Hinton E agar culture medium (bioMérieux). The strips contain respectively a concentration gradient of gentamicin, tetracycline, ampicillin/sulbactam, ampicillin. In the same manner, an inoculum of a strain of Escherichia coli ATCC 25922 having a concentration of 0.5 McFarland is deposited in droplets along four Etest® strips (bioMérieux), each deposited on a Mueller Hinton E agar culture medium (bioMérieux). The strips also contain a concentration gradient of gentamicin, tetracycline, ampicillin/sulbactam, ampicillin.
(§3) The values are given in μg/ml at different incubation times. The inhibition values for the flooding method are measured from images obtained by a shadowgraphy capture device as described above. The inhibition values for the method according to the invention are measured from images obtained by a shadowgraphy capture device at 5 hours, and visually at 7 hours.

[2] = system: Escherichia coli ATCC 35218; assay: Etest strip MIC, deposition of the sample in droplets along the strip; parameters: key to minimum inhibitory concentration / MIC: R = resistant
Description: (§4) FIGS. 8a to 8d and 9a to 9d illustrate this second example of implementation of the invention. According to FIG. 8a, a sample 1 is deposited in the form of a series of droplets, along an axis parallel to the long edge of a strip 3 containing a concentration gradient of chemical agent. The strip 3 comprises graduations of concentrations of chemical agent 13, making it possible to deduce a minimum inhibitory concentration of chemical agent. An example of such a strip is sold by the applicant under the trade name Etest®. According to the FIG. 8b, a strip 3 containing a chemical agent 5 is deposited on a culture medium 2 contained in a Petri dish 4 (for example a Petri dish with a diameter greater than or equal to 9 cm). The detail B in FIG. 8b is visible in FIG. 8c. A sample 1 is deposited in the form of a series of droplets in a deposition zone 8 along an axis 7 parallel to the long edge of the strip 3. In this example, 13 nanoliter drops are deposited by a Pipejet P9 Nanodispenser pipette sold by the company biofluidix and mounted on a robotic arm. The detail C in FIG. 8c is visible in FIG. 8d. 50 droplets are thus deposited along the axis 7 with an interval P of 800 μm. Each droplet covers a surface area of approximately 1 mm^2.
as §2
(§5) Fifty droplets, each with a volume of 13 nanoliters and spaced apart by 800 μm, are deposited along each strip. As a function of the concentration of 0.5 McFarland, it is thus estimated that approximately 2000 bacteria are present in each droplet. The eight culture media prepared in this way are then incubated and monitored periodically in order to determine the presence or the absence of a zone of inhibition and/or of growth of the microorganisms.
FIGS. 9a to 9d illustrate a plan view of the four media in which the sample of Escherichia coli ATCC 35218 was deposited. FIGS. 9a to 9d are obtained by means of a shadowgraphy capture device as presented in relation to FIG. 5. FIG. 9a presents a view after 5 hours of incubation of the sample in the presence of gentamicin. […] A minimum inhibitory concentration value is then obtained at the intersection between the straight line 14 and the long edge of the strip. A minimum inhibitory concentration (MIC) of 2 μg/ml is thus determined.
Advantageously, a straight line or an arc 15 delimiting the boundary of the zone of growth of microorganisms and the zone of inhibition may be sought, this straight line not necessarily being perpendicular to the long edge and thus reproducing said boundary more faithfully. This straight line or this arc corresponds to a portion of the ovoid area of inhibition observed with conventional inoculation methods and therefore enables better estimation of the MIC. In the case in which a straight line or an arc 15 is sought, the minimum inhibitory concentration may be obtained by tracing a line perpendicular to the long edge of the strip, crossing the point of intersection between the straight line 15 and the axis of deposition of the sample 7, then by seeking the graduation corresponding to this perpendicular line on the strip. […]

[3] = system: Escherichia coli ATCC 25922; assay: Etest strip MIC, conventional method by flooding of the medium; conditions: for MIC: Escherichia coli, ATCC25922, ATCC 25922, 0.5 McFarland, read-out: minimum inhibitory concentration; for minimum inhibitory concentration: ATCC 25922, 0.5 McFarland
Procedure: as §1, §2, §3

[4] = system: Escherichia coli ATCC 25922; assay: Etest strip MIC, deposition of the sample in droplets along the strip; conditions: for MIC: Escherichia coli, ATCC25922, ATCC 25922, 0.5 McFarland, read-out: minimum inhibitory concentration; for minimum inhibitory concentration: ATCC 25922, 0.5 McFarland
Description: as §4, §2, §5
as §3, with “The minimum inhibitory concentration results obtained for the strains of Escherichia coli ATCC 35218 and also the strains of Escherichia coli ATCC 25922 are compared with the conventional method by flooding of the medium in table 1 below. The values” for “The values”

[5] = Escherichia coli, ATCC35218, droplets of 13 nanoliters, ATCC 35218 at 0.5 McFarland, after 5 hours of incubation, shadowgraphy (FIGS. 9a-9d), read-out: minimum inhibitory concentration (MIC)
[6] = incubation time 5 H (shadowgraphy)
[7] = Flooding, ATCC 35218, 0.5 McFarland, incubation time 6 H
[8] = Flooding, ATCC 35218, 0.5 McFarland, incubation time 8 H
[9] = Table 2, flooding, ATCC 35218, 28 H
[10] = Deposition in droplets, ATCC 35218, 0.5 McFarland, incubation time 5 H (shadowgraphy)
[11] = Deposition in droplets, ATCC 35218, 0.5 McFarland, incubation time 7 H (visual)
[12] = Table 2, droplet (replicate 1 where replicated), ATCC 35218, 0.5 McF, 5 H
[13] = Table 2, droplet (replicate 1 where replicated), ATCC 35218, 0.5 McF, 7 H

Molecule: CN(C)[C@@H]1C(O)=C(C(N)=O)C(=O)[C@@]2(O)C(O)=C3C(=O)c4c(O)cccc4[C@@](C)(O)[C@H]3C[C@@H]12 [Tetracycline, tetracycline]
- MIC ([1]; Escherichia coli, ATCC35218, Flooding, ATCC 35218, 0.5 McFarland, incubation time 4 H, read-out: minimum inhibitory concentration): 0.44 µg/mL (≈ 0.99 µM)
- MIC ([1]; Escherichia coli, ATCC35218, Flooding, ATCC 35218, 0.5 McFarland, incubation time 5 H, read-out: minimum inhibitory concentration): 0.86 µg/mL (≈ 1.94 µM)
- MIC ([1]; Escherichia coli, ATCC35218, Flooding, ATCC 35218, 0.5 McFarland, incubation time 6 H, read-out: minimum inhibitory concentration): 0.96 µg/mL (≈ 2.16 µM)
- MIC ([1]; Escherichia coli, ATCC35218, Flooding, ATCC 35218, 0.5 McFarland, incubation time 8 H, read-out: minimum inhibitory concentration): 1.12 µg/mL (≈ 2.51 µM)
- MIC ([1]; Escherichia coli, ATCC35218, Flooding, ATCC 35218, 0.5 McFarland, incubation time 24 H, read-out: minimum inhibitory concentration): 2.3 µg/mL (≈ 5.18 µM)
- MIC ([1]; Escherichia coli, ATCC35218, Table 2, flooding, ATCC 35218, 4 H, read-out: MIC): 0.44 µg/mL (≈ 0.99 µM)
- MIC ([1]; Escherichia coli, ATCC35218, Table 2, flooding, ATCC 35218, 5 H, read-out: MIC): 0.86 µg/mL (≈ 1.94 µM)
- MIC ([1]; Escherichia coli, ATCC35218, Table 2, flooding, ATCC 35218, 8 H, read-out: MIC): 1.12 µg/mL (≈ 2.51 µM)
- MIC ([1]; Escherichia coli, ATCC35218, Table 2, flooding, ATCC 35218, 28 H, read-out: MIC): 2.3 µg/mL (≈ 5.18 µM)
- MIC ([1]; Escherichia coli, ATCC35218, Table 2, flooding, ATCC 35218, column 4 headed 8 H (between 5 H and 7 H), read-out: MIC): 0.96 µg/mL (≈ 2.16 µM)
- MIC ([2]; Escherichia coli, ATCC35218, Deposition in droplets, ATCC 35218, 0.5 McFarland, incubation time 5 H (shadowgraphy), read-out: minimum inhibitory concentration): 1.5 µg/mL (≈ 3.38 µM)
- MIC ([2]; Escherichia coli, ATCC35218, Deposition in droplets, ATCC 35218, 0.5 McFarland, incubation time 7 H (visual), read-out: minimum inhibitory concentration): 2 µg/mL (≈ 4.5 µM)
- MIC ([2]; Escherichia coli, ATCC35218, Table 2, droplet (replicate 1 where replicated), ATCC 35218, 0.5 McF, 5 H, read-out: MIC): 1.5 µg/mL (≈ 3.38 µM)
- MIC ([2]; Escherichia coli, ATCC35218, Table 2, droplet (replicate 1 where replicated), ATCC 35218, 0.5 McF, 7 H, read-out: MIC): 2 µg/mL (≈ 4.5 µM)
- MIC [2, 5]: 1.5 µg/mL (≈ 3.38 µM)
- MIC ([3]; incubation time 4 H): 0.3 µg/mL (≈ 0.675 µM)
- MIC ([3]; incubation time 5 H): 0.6 µg/mL (≈ 1.35 µM)
- MIC ([3]; incubation time 6 H): 0.66 µg/mL (≈ 1.49 µM)
- MIC ([3]; incubation time 8 H): 0.86 µg/mL (≈ 1.94 µM)
- MIC ([3]; incubation time 24 H): 1.77 µg/mL (≈ 3.98 µM)
- MIC [4, 6]: 1.5 µg/mL (≈ 3.38 µM)
- MIC ([4]; incubation time 7 H (visual)): 2 µg/mL (≈ 4.5 µM)

Molecule: gentamicin
- minimum inhibitory concentration ([1]; Flooding, ATCC 35218, 0.5 McFarland, incubation time 4 H): 0.96 µg/mL
- minimum inhibitory concentration ([1]; Flooding, ATCC 35218, 0.5 McFarland, incubation time 5 H): 1.14 µg/mL
- minimum inhibitory concentration [1, 7]: 1.17 µg/mL
- minimum inhibitory concentration [1, 8]: 1.17 µg/mL
- minimum inhibitory concentration ([1]; Flooding, ATCC 35218, 0.5 McFarland, incubation time 24 H): 1.06 µg/mL
- MIC ([1]; Table 2, flooding, ATCC 35218, 4 H): 0.96 µg/mL
- MIC ([1]; Table 2, flooding, ATCC 35218, 5 H): 1.14 µg/mL
- MIC [1, 9]: 1.06 µg/mL
- minimum inhibitory concentration [2, 10]: 2 µg/mL
- minimum inhibitory concentration [2, 11]: 2 µg/mL
- MIC [2, 12]: 2 µg/mL
- MIC [2, 13]: 2 µg/mL
- minimum inhibitory concentration (MIC) ([2]; droplets of 13 nanoliters, ATCC 35218 at 0.5 McFarland, after 5 hours of incubation, shadowgraphy (FIGS. 9a-9d)): 2 µg/mL
- minimum inhibitory concentration ([3]; incubation time 4 H): 1.74 µg/mL
- minimum inhibitory concentration ([3]; incubation time 5 H): 1.51 µg/mL
- minimum inhibitory concentration ([3]; incubation time 6 H): 1.75 µg/mL
- minimum inhibitory concentration ([3]; incubation time 8 H): 1.82 µg/mL
- minimum inhibitory concentration ([3]; incubation time 24 H): 1.54 µg/mL
- minimum inhibitory concentration [4, 6]: 2 µg/mL
- minimum inhibitory concentration ([4]; incubation time 7 H (visual)): 2 µg/mL

Molecule: CC1(C)S[C@@H]2[C@H](NC(=O)[C@H](N)c3ccccc3)C(=O)N2[C@H]1C(=O)O [Ampicillin, ampicillin]
- minimum inhibitory concentration [1, 7]: R
- minimum inhibitory concentration [1, 8]: R
- minimum inhibitory concentration ([1]; Flooding, ATCC 35218, 0.5 McFarland, incubation time 18 H): R
- MIC [1, 9]: R
- minimum inhibitory concentration [2, 10]: R
- minimum inhibitory concentration [2, 11]: R
- MIC [2, 5]: > 256 µg/mL
- MIC [2, 12]: R
- MIC [2, 13]: R
- MIC ([3]; incubation time 6 H): 3.43 µg/mL (≈ 9.82 µM)
- MIC ([3]; incubation time 8 H): 5.21 µg/mL (≈ 14.9 µM)
- MIC ([3]; incubation time 18 H): 5.69 µg/mL (≈ 16.3 µM)
- MIC [4, 6]: 8 µg/mL (≈ 22.9 µM)
- MIC ([4]; incubation time 7 H (visual)): 8 µg/mL (≈ 22.9 µM)
